{"source": "patent US8771983B2", "about": "“Method and kit for expressing protein under regulation of the expression from repeated sequence formed by gene amplification, and transformant” (National University of Corporation Hiroshima University, priority 2004, dated 2014)", "key": {"[1]": {"tested_on": "expression of d2EGFP in human colon cancer cells COLO 320DM cells", "test": "Level of expression of d2EGFP after treatment of cells with 5-aza-2′-deoxycytidine and/or Trichostatin A (Example 6)", "assay_type": "cell-based", "procedure": "(§1) Fluorescence intensity of these cells were measured by using a cell sorter. The measurement was carried out by sorting 20,000 cells by setting living cells at a gate. The cell sorter used was made by Becton Dickinson, and operated under conditions as described in the manual attached thereto.\n(§2) In this method for detecting the fluorescence intensity, detection limit was 1, and all fluorescence intensities of 1 or less would be detected as 1. In view of this, a product of a ratio (cell %) of cells of fluorescence intensities of 2 or more in all living cells (10,000 cells) and an average of the fluorescence intensities of the cells having fluorescence intensities of 2 or more was calculated out for each experimental plot. This product is referred to as “accumulated fluorescence intensity” hereinafter and in later Examples and shown in boxed letter in the figures.\nA mixture of a plasmid (pSFVdhfr/d2EGFP) and the plasmid DNA having the Aves-derived HS4 insulator sequence was transfected to human colon cancer cells COLO 320DM cells by lipofection. The plasmid (pSFVdhfr/d2EGFP) was a plasmid having (a) IR and MAR derived from human DHFR gene locus, (b) Blasticidin tolerance gene, and (c) d2EGFP gene that was under control of TRE-promoter (Tetracycline inducing promoter). The plasmid DNA having the Aves-derived HS4 insulator sequence was identical with the one described in Example 2. From 2 days later since the gene transfection, the cells were selected with 5 μg/ml of Blasticidin (Funakoshi Corp.). After 3 to 4 weeks, many colonies of transformed cells were obtained.\nInto a culture solution of the transformed cells, of 1 μM or 3 μM of 5-aza-2′ deoxycytidine (hereinafter referred to as “5-aza” where appropriate; Sigma) was added. Thereby, the cells were treated with 5-aza for 3 days. For comparison purposes, 20 nM of Trichostatin A (hereinafter referred to as “TSA” where appropriate; histone deacetylation inhibitor, Sigma), which is known as a material for increasing gene expression from the repeated sequence, was added to some culture solutions of the transformed cells and analyzed."}, "[2]": {"tested_on": "expression of d2EGFP in Tet-ON cells (COLO 320DM) transfected with pSFVdhfr/d2EGFP", "test": "Level of expression of d2EGFP by cell sorter in HSR and DM clones of Tet-ON cells with 5-aza (Example 7)", "assay_type": "cell-based, human", "details": "polyclonal population of Tet-ON cells with pSFVdhfr/d2EGFP; 5 μg/ml of Doxycycline", "procedure": "as §1, §2\nBy lipofection, the pTet-ON plasmid (Clontech Laboratories Inc.) having Tet-ON gene encoding a transcription activating factor (Tet-ON protein) for promoting TRE-promoter was transfected into human colon cancer COLO 320DM. Transformed cells (hereinafter referred to as “Tet-ON cells”) which stably expressed Tet-ON protein, were selected with Hygromycin.\nNext, the pSFVdhfr/d2EGFP plasmid was transfected into the Tet-ON cells by lipofection. The cells thus obtained were selected with 5 μg/ml of Blasticidin for approximately 3 weeks, thereby obtaining a polyclonal population of the stable transformed cells.\nThe expression of d2EGFP was induced in the polyclonal population by activating TRE-promoter by adding 5 μg/ml of Doxycycline (Clontech Laboratories Inc.) in the medium. FIG. 9 illustrates a result of analysis of the level of the expression of d2EGFP in this case by using a cell sorter. In FIG. 9, the value in parenthesis is an average of fluorescence intensities (i.e., average fluorescence intensity), and boxed value is an accumulated fluorescence intensity. Based on the result of FIG. 9, it was confirmed that the polyclonal population was a population for expressing d2EGFP (average fluorescence intensity: 6.25, accumulated fluorescence intensity: 536).\nFrom the polyclonal population, given 30 clones were obtained by a limiting dilution method that was carried out by inoculating a clone to 6 well plates with such a low cell concentration of 30 cells/ml, and incubating the plates for 10 days to 2 weeks thereby obtaining colonies thereon.\nFrom among the clones, 4 clones having high levels of expression of d2EGFP (Clone 4, Clone 5, Clone 6, and Clone 9) were selected by fluorescence microscopic observation. Mitotic chromosome samples of the 4 clones were prepared. By FISH method, detection for a base sequence derived from the transfected pSFVdhfr/d2EGFP plasmid was carried out. The preparation of mitotic chromosome samples and the FISH method were carried out as described in Shimizu, N., Kanda, T., and Wahl, G. M. Selective capture of acentric fragments by micronuclei provides a rapid method of purifying extrachromosomally amplified DNA. Nature Genet., 12: 65-71, 1996.\nFor 4 clones, induction with Doxycycline (Clontech Laboratories Inc.; 1 μg/ml) was carried out and 5-aza (0 μM, 1 μM or 3 μM) was added in the medium. After 1 week culturing, the level of expression of d2EGFP in each clone was analyzed by using a cell sorter."}, "[3]": {"tested_on": "expression of d2EGFP in human colon cancer COLO 320DM cells", "test": "Change over time of d2EGFP expression after induction with Doxycycline in cells cotransfected with pSFVdhfr/d2EGFP and pTet-ON plasmid (Example 8)", "assay_type": "cell-based", "details": "polyclonal population", "procedure": "as §1, §2\nAn equimolar mixture of a plasmid (pSFVdhfr/d2EGFP) and pTet-ON plasmid (Clontech Laboratories Inc.) was simultaneously transfected into human colon cancer COLO 320DM cells. The plasmid (pSFVdhfr/d2EGFP) was a plasmid having (a) IR and MAR derived from human DHFR gene locus, (b) Blasticidin tolerance gene, and (c) d2EGFP gene that was under control of TRE-promoter (Tetracycline inducing promoter). Meanwhile, the pTet-ON plasmid was a plasmid having Tet-ON gene encoding the transcription activating factor (Tet-ON protein) of TRE-promoter. The cells were selected with 5 μg/ml of Blasticidin thereby obtaining a polyclonal population of transformed cells. TRE-promoter was activated by adding 1 μg/ml of Doxycycline (Clontech Laboratories Inc.) in the medium of a cell culturing solution of the polyclonal population, thereby inducing the expression of d2EGFP.\nNext, after the expression of d2EGFP was induced by Doxycycline, the level of the expression of d2EGFP was analyzed by using a cell sorter so as to find a change in the level of the expression of d2EGFP over time. […] In FIG. 16, the value in parenthesis is an average of fluorescence intensities (i.e., average fluorescence intensity), and boxed value is an accumulated fluorescence intensity.\nFIG. 17 illustrates a graph plotting the averages (i.e., average fluorescence intensities: indicated by filled circles in FIG. 17) and living cell ratio (a ratio of living cells over total cell number: indicated by open circles) of the level of the expression of d2EGFP against time. […] The level was maintained high even after two weeks lapsed (labeled as “2wk” in FIG. 17)."}, "[4]": {"tested_on": "expression of d2EGFP in human colon cancer cell COLO 320DM cells", "test": "Level of expression of d2EGFP by cell sorter after selection with stepwise increasing Blasticidin concentrations (Example 3)", "assay_type": "cell-based", "details": "1 μg/ml Doxycycline", "procedure": "as §1, §2\nA plasmid (pSFVdhfr/d2EGFP) was transfected into human colon cancer cell COLO 320DM cells by lipofection. The plasmid (pSFVdhfr/d2EGFP) was a plasmid having (a) IR and MAR derived from human DHFR gene locus, (b) Blasticidin tolerance gene, and (c) d2EGFP gene that was under control of TRE-promoter (Tetracycline inducing promoter). The transformed cells were selected with 5 μg/ml of Blasticidin (Funakoshi Corp.) thereby obtaining many transformed clones. After the clones were mixed, the culturing was continued. […] Cells select with the respective Blasticidin concentrations were treated with 1 μg/ml of Doxycycline (Clontech Laboratories Inc.) added to the media so as to activate TRE-promoter and thereby inducing expression of d2EGFP (whose half-life is much shorter than general EGFP."}, "[5]": {"details": "fifteen hours after the addition of Doxycycline (1 μg/ml)"}, "[6]": {"details": "forty eight hours (2 days) after the addition of Doxycycline (1 μg/ml)"}, "[7]": {"details": "one hour after the addition of Doxycycline (1 μg/ml)"}, "[8]": {"details": "one hundred twenty hours (5 days) after the addition of Doxycycline (1 μg/ml)"}, "[9]": {"details": "six hours after the addition of Doxycycline (1 μg/ml)"}, "[10]": {"details": "three hours after the addition of Doxycycline (1 μg/ml)"}, "[11]": {"details": "twenty four hours after the addition of Doxycycline (1 μg/ml)"}, "[12]": {"details": "two weeks after the addition of Doxycycline (1 μg/ml)"}, "[13]": {"details": "pSFVdhfr/d2EGFP cells selected with 5 μg/ml of Blasticidin"}, "[14]": {"details": "pSFVdhfr/d2EGFP cells selected with 40 μg/ml of Blasticidin"}, "[15]": {"details": "pSFVdhfr/d2EGFP cells selected with 160 μg/ml of Blasticidin"}, "[16]": {"details": "pSFVdhfr/d2EGFP cells selected with 320 μg/ml of Blasticidin"}}, "data": [{"smiles": "CC(/C=C/C(=O)NO)=C\\[C@@H](C)C(=O)c1ccc(N(C)C)cc1", "note": "[TSA, Trichostatin A]", "values": [{"measurement": "accumulated fluorescence intensity", "setting": "[1]; 20 nM of TSA", "value": 228}, {"measurement": "average fluorescence intensity", "setting": "[1]; 20 nM of TSA", "value": 3.02}, {"measurement": "effect on the expression of the target protein", "setting": "[1]; 20 nM of TSA versus cells before treatment", "value": "cannot increase the expression of the target protein"}]}, {"smiles": "C[C@H]1c2cccc(O)c2C(=O)C2=C(O)[C@]3(O)C(=O)C(C(N)=O)=C(O)[C@@H](N(C)C)[C@@H]3[C@@H](O)[C@@H]21", "note": "[Doxycycline]", "values": [{"measurement": "accumulated fluorescence intensity", "setting": "[2]", "value": 536}, {"measurement": "average fluorescence intensity", "setting": "[2]", "value": 6.25}, {"measurement": "accumulated fluorescence intensity", "setting": "[3]; [5]", "value": 841}, {"measurement": "average fluorescence intensity", "setting": "[3]; [5]", "value": 9.24}, {"measurement": "accumulated fluorescence intensity", "setting": "[3]; [6]", "value": 5320}, {"measurement": "average fluorescence intensity", "setting": "[3]; [6]", "value": 53.97}, {"measurement": "accumulated fluorescence intensity", "setting": "[3]; [7]", "value": 216}, {"measurement": "average fluorescence intensity", "setting": "[3]; [7]", "value": 2.99}, {"measurement": "accumulated fluorescence intensity", "setting": "[3]; [8]", "value": 3880}, {"measurement": "average fluorescence intensity", "setting": "[3]; [8]", "value": 39.56}, {"measurement": "survival ratio of the cells (living cell ratio)", "setting": "[3]; expression of d2EGFP induced by Doxycycline, up to two weeks", "value": "no decrease in the survival ratio"}, {"measurement": "accumulated fluorescence intensity", "setting": "[3]; [9]", "value": 341}, {"measurement": "average fluorescence intensity", "setting": "[3]; [9]", "value": 4.22}, {"measurement": "accumulated fluorescence intensity", "setting": "[3]; [10]", "value": 293}, {"measurement": "average fluorescence intensity", "setting": "[3]; [10]", "value": 3.72}, {"measurement": "accumulated fluorescence intensity", "setting": "[3]; [11]", "value": 2800}, {"measurement": "average fluorescence intensity", "setting": "[3]; [11]", "value": 28.77}, {"measurement": "accumulated fluorescence intensity", "setting": "[3]; [12]", "value": 3500}, {"measurement": "average fluorescence intensity", "setting": "[3]; [12]", "value": 35.32}]}, {"smiles": "CN(CC[C@H](N)CC(=O)N[C@H]1C=C[C@H](n2ccc(N)nc2=O)O[C@@H]1C(=O)O)C(=N)N", "note": "[Blasticidin]", "values": [{"measurement": "average fluorescence intensity", "setting": "[4]; pSFVdhfr/d2EGFP cells selected with 10 ng/ml of Blasticidin", "value": 3.77}, {"measurement": "accumulated fluorescence intensity", "setting": "[4]; [13]", "value": 222}, {"measurement": "average fluorescence intensity", "setting": "[4]; [13]", "value": 2.94}, {"measurement": "accumulated fluorescence intensity", "setting": "[4]; [14]", "value": 640}, {"measurement": "average fluorescence intensity", "setting": "[4]; [14]", "value": 6.67}, {"measurement": "accumulated fluorescence intensity", "setting": "[4]; [15]", "value": 929}, {"measurement": "average fluorescence intensity", "setting": "[4]; [15]", "value": 9.47}, {"measurement": "accumulated fluorescence intensity", "setting": "[4]; [16]", "value": 1850}, {"measurement": "average fluorescence intensity", "setting": "[4]; [16]", "value": 18.55}]}]}
